Source: PubChem BioAssay (NCI)
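In this assay, cells in 96-well plates receive the compound at five concentrations for 48 hours. Endpoints are linearly interpolated between the surrounding concentrations. Abbreviation: GI50, concentration required for 50% inhibition of growth. TGI marks complete inhibition of growth.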

What was measured:
Test in all cases: NCI anticancer screen, dose series, 48 h
[1] = test system: OVCAR-3 ovarian
[2] = test system: HL-60(TB) leukemia
[3] = test system: TK-10 renal
[4] = test system: SK-MEL-2 melanoma
[5] = test system: MALME-3M melanoma
[6] = test system: COLO 205 colon
[7] = test system: CCRF-CEM leukemia
[8] = test system: A549 NSCLC
[9] = test system: HCT-116 colon
[10] = test system: K-562 leukemia
[11] = test system: SF-268 CNS
[12] = test system: SNB-75 CNS
[13] = test system: NCI/ADR-RES ovarian
[14] = test system: NCI-H23 lung
[15] = test system: NCI-H226 lung
[16] = test system: UO-31 renal
[17] = test system: HCC-2998 colon
[18] = test system: BT-549 breast
[19] = test system: HOP-62 NSCLC
[20] = test system: HCT-15 colon
[21] = test system: SW-620 colon
[22] = test system: ACHN renal
[23] = test system: UACC-62 melanoma
[24] = test system: A498 renal
[25] = test system: SR leukemia
[26] = test system: SK-MEL-5 melanoma
[27] = test system: OVCAR-4 ovarian
[28] = test system: SF-539 CNS
[29] = test system: RPMI-8226 leukemia
[30] = test system: DU-145 prostate
[31] = test system: HT29 colon
[32] = test system: OVCAR-5 ovarian
[33] = test system: MDA-MB-231 breast
[34] = test system: CAKI-1 renal
[35] = test system: NCI-H522 lung
[36] = test system: MDA-MB-435
[37] = test system: NCI-H460 lung
[38] = test system: OVCAR-8 ovarian
[39] = test system: U251 CNS
[40] = test system: PC-3 prostate
[41] = test system: EKVX NSCLC
[42] = test system: M14 melanoma
[43] = test system: LOX IMVI melanoma
[44] = test system: HOP-92 NSCLC
[45] = test system: UACC-257 melanoma
[46] = test system: SNB-19 CNS
[47] = test system: SF-295 CNS
[48] = test system: HS 578T breast
[49] = test system: T-47D breast
[50] = test system: 786-0 renal
[51] = test system: MOLT-4 leukemia
[52] = test system: IGROV1 ovarian
[53] = test system: MCF7 breast
[54] = test system: SK-OV-3 ovarian
[55] = test system: KM12 colon
[56] = test system: RXF 393 renal
[57] = test system: SN12C renal
[58] = test system: SK-MEL-28 melanoma
[59] = test system: MDA-N

SMILES: COc1c2ccccc2c(O)c2c(=O)ccn(C)c12
- GI50 [1]: 1.86 µM
- TGI [1]: 11 µM
- GI50 [2]: 3.25 µM
- TGI [2]: 18.7 µM
- GI50 [3]: 11.3 µM
- TGI [3]: 55.8 µM
- GI50 [4]: 22.6 µM
- TGI [4]: > 100 µM
- GI50 [5]: 2.37 µM
- TGI [5]: 5.46 µM
- GI50 [6]: 7.7 µM
- TGI [6]: > 100 µM
- GI50 [7]: 26.8 µM
- TGI [7]: > 100 µM
- GI50 [8]: 9.14 µM
- TGI [8]: > 67.3 µM
- GI50 [9]: 3.13 µM
- TGI [9]: 13.1 µM
- GI50 [10]: 7.5 µM
- TGI [10]: > 100 µM
- GI50 [11]: 16.5 µM
- TGI [11]: > 68.9 µM
- GI50 [12]: 12.9 µM
- TGI [12]: > 53.9 µM
- GI50 [13]: 4.62 µM
- TGI [13]: 30 µM
- GI50 [14]: 1.73 µM
- TGI [14]: 4.08 µM
- GI50 [15]: 7.49 µM
- TGI [15]: > 49.9 µM
- GI50 [16]: > 57.5 µM
- TGI [16]: > 100 µM
- GI50 [17]: 3.68 µM
- TGI [17]: 20 µM
- GI50 [18]: 14.7 µM
- TGI [18]: 84.2 µM
- GI50 [19]: 5.48 µM
- TGI [19]: 33 µM
- GI50 [20]: 3.72 µM
- TGI [20]: 19.6 µM
- GI50 [21]: 16.5 µM
- TGI [21]: > 100 µM
- GI50 [22]: 6.13 µM
- TGI [22]: 46.3 µM
- GI50 [23]: 2.75 µM
- TGI [23]: 7.5 µM
- GI50 [24]: 10.7 µM
- TGI [24]: 41.6 µM
- GI50 [25]: 8.94 µM
- TGI [25]: 81.8 µM
- GI50 [26]: 3.77 µM
- TGI [26]: 14.4 µM
- GI50 [27]: 30.3 µM
- TGI [27]: > 92 µM
- GI50 [28]: 11.5 µM
- TGI [28]: 89.6 µM
- GI50 [29]: 5.96 µM
- TGI [29]: > 100 µM
- GI50 [30]: 7.67 µM
- TGI [30]: > 100 µM
- GI50 [31]: 16.5 µM
- TGI [31]: > 100 µM
- GI50 [32]: 11.7 µM
- TGI [32]: 45 µM
- GI50 [33]: 8.66 µM
- TGI [33]: > 61.4 µM
- GI50 [34]: 8.59 µM
- TGI [34]: 52.9 µM
- GI50 [35]: 23.9 µM
- TGI [35]: > 100 µM
- GI50 [36]: 2.03 µM
- TGI [36]: 4.32 µM
- GI50 [37]: 3.51 µM
- TGI [37]: 17 µM
- GI50 [38]: 4.42 µM
- TGI [38]: 38.1 µM
- GI50 [39]: 2.67 µM
- TGI [39]: 13.4 µM
- GI50 [40]: 15 µM
- TGI [40]: 57.6 µM
- GI50 [41]: 17.9 µM
- TGI [41]: 79.2 µM
- GI50 [42]: 2.3 µM
- TGI [42]: 5.81 µM
- GI50 [43]: 2.02 µM
- TGI [43]: 11.3 µM
- GI50 [44]: 25.6 µM
- TGI [44]: 91.1 µM
- GI50 [45]: 3.45 µM
- TGI [45]: 12.6 µM
- GI50 [46]: 7.77 µM
- TGI [46]: > 100 µM
- GI50 [47]: 3.69 µM
- TGI [47]: 27.8 µM
- GI50 [48]: 12.2 µM
- TGI [48]: 61.5 µM
- GI50 [49]: 31.7 µM
- TGI [49]: > 100 µM
- GI50 [50]: 17.2 µM
- TGI [50]: 66.4 µM
- GI50 [51]: 17.9 µM
- TGI [51]: > 83.8 µM
- GI50 [52]: 30.9 µM
- TGI [52]: > 100 µM
- GI50 [53]: 3.31 µM
- TGI [53]: 11.3 µM
- GI50 [54]: 75.1 µM
- TGI [54]: > 100 µM
- GI50 [55]: 4.97 µM
- TGI [55]: 38.3 µM
- GI50 [56]: 5.27 µM
- TGI [56]: 20.3 µM
- GI50 [57]: 6.79 µM
- TGI [57]: 22.1 µM
- GI50 [58]: 21.2 µM
- TGI [58]: > 80.1 µM

SMILES: COc1ccc2nc3c([N+](=O)[O-])ccc(NCCN(C)C)c3c(NCCN(C)C)c2c1
- TGI [59]: 3.13 µM
- TGI [2]: 3.02 µM
- TGI [3]: > 10 µM
- TGI [5]: 7.69 µM
- TGI [6]: > 10 µM
- TGI [7]: 1.78 µM
- TGI [8]: 4.26 µM
- TGI [10]: 3.42 µM
- TGI [11]: > 10 µM
- TGI [12]: 3.51 µM
- TGI [14]: 3.04 µM
- TGI [17]: 2.25 µM
- TGI [19]: 2.73 µM
- TGI [20]: 2.59 µM
- TGI [21]: 3.25 µM
- TGI [23]: > 10 µM
- TGI [25]: 0.634 µM
- TGI [26]: 3.28 µM
- TGI [27]: 1.86 µM
- TGI [29]: 1.97 µM
- TGI [30]: > 10 µM
- TGI [31]: 4.51 µM
- TGI [33]: 2.67 µM
- TGI [34]: > 10 µM
- TGI [36]: 3.01 µM
- TGI [38]: 3.04 µM
- TGI [40]: 2.02 µM
- TGI [41]: 4.59 µM
- TGI [42]: > 10 µM
- TGI [43]: 3.11 µM
- TGI [44]: > 10 µM
- TGI [45]: > 10 µM
- TGI [47]: 3.03 µM
- TGI [49]: > 10 µM
- TGI [50]: 1.98 µM
- TGI [51]: 0.732 µM
- TGI [52]: 5.13 µM
- TGI [53]: 1.84 µM
- TGI [54]: > 10 µM
- TGI [55]: 2.82 µM
- TGI [56]: 2.33 µM
- TGI [57]: 2.78 µM
- TGI [58]: 4.15 µM

SMILES: Cc1ccc(/C=C2\NC(=S)N(CN3CCCCC3)C2=O)cc1
- TGI [59]: > 100 µM
- TGI [1]: > 100 µM
- TGI [3]: > 100 µM
- TGI [4]: > 100 µM
- TGI [5]: > 100 µM
- TGI [6]: 39.8 µM
- TGI [7]: 86.7 µM
- TGI [8]: > 100 µM
- TGI [9]: > 100 µM
- TGI [10]: > 100 µM
- TGI [11]: > 100 µM
- TGI [12]: > 100 µM
- TGI [13]: > 100 µM
- TGI [14]: > 100 µM
- TGI [15]: > 100 µM
- TGI [16]: > 100 µM
- TGI [19]: > 100 µM
- TGI [20]: > 100 µM
- TGI [21]: > 100 µM
- TGI [22]: > 100 µM
- TGI [23]: > 100 µM
- TGI [24]: > 100 µM
- TGI [25]: > 100 µM
- TGI [26]: > 100 µM
- TGI [27]: > 100 µM
- TGI [29]: > 100 µM
- TGI [30]: > 100 µM
- TGI [31]: 72.7 µM
- TGI [32]: > 100 µM
- TGI [33]: > 100 µM
- TGI [35]: > 100 µM
- TGI [36]: > 100 µM
- TGI [38]: > 100 µM
- TGI [39]: > 100 µM
- TGI [40]: > 100 µM
- TGI [41]: > 100 µM
- TGI [42]: > 100 µM
- TGI [43]: > 100 µM
- TGI [44]: 94.4 µM
- TGI [46]: > 100 µM
- TGI [47]: > 100 µM
- TGI [48]: > 100 µM
- TGI [50]: > 100 µM
- TGI [51]: > 100 µM
- TGI [52]: > 100 µM
- TGI [53]: > 100 µM
- TGI [54]: > 100 µM
- TGI [55]: > 100 µM
- TGI [57]: > 100 µM
- TGI [58]: > 100 µM
